The numbers were not newly measured in patent US20240180821A1, “ORALLY DISINTEGRATING FILM COMPOSITION OF KETOROLAC AND A METHOD OF PREPARATION THEREOF” (LN LABORATORIES PVT LTD, priority 2021, published 2024), which cites them from elsewhere.

As usually defined, the pKa is the pH at which an ionisable group is half protonated.

`O=C(c1ccccc1)c1ccc2n1CCC2C(=O)O` (racemic) [Ketorolac tromethamine, (±)-5-Benzoyl-2,3-dihydro-1H-pyrrolizine-1-carboxylic acid, compound with 2-amino-2-(hydroxymethyl)-1,3-propanediol]: the pKa was 3.5.
